Values of other authors in patent US20190343827A1, “DEUTERATED ANALOGS OF TARIQUIDAR” (Izumi Technology, LLC, priority 2018, published 2019).

What was measured:
[1] = patients with lung, ovarian and cervical cancer
[2] = tested on: non-small-cell lung cancer; settings: co-administration with paclitaxel or carboplatin

## COc1cc2c(cc1OC)CN(CCc1ccc(NC(=O)c3cc(OC)c(OC)cc3NC(=O)c3cnc4ccccc4c3)cc1)CC2 [Tariquidar, N-[2-[[4-[2-(6,7-dimethoxy-3,4-dihydro-1H-isoquinolin-2-yl)ethyl]phenyl]carbamoyl]-4,5-dimethoxyphenyl]quinoline-3-carboxamide]
[1]
  docetaxel disposition as a result of tariquidar co-administration: No significant differences
[2]
  study outcome, toxicity: terminated early due to toxicity
Refractory solid tumors; children and adolescents with refractory solid tumors, 29 patients
  clinical response: low
Refractory solid tumors; co-administered with tariquidar, compared to historic data in absence of tariquidar
  clearance of docetaxel and vinorelbine: reduced
Refractory solid tumors; out of 29 patients
  complete response, number of patients: one
  partial response, number of patients: two
